In paper PMC2993163 (Structure (London, England : 1993), 2009):

Biological target: T1, BdRppH (Bdellovibrio bacteriovorus, UniProt Q6MPX4)
T1 sequence (Q6MPX4 1-153): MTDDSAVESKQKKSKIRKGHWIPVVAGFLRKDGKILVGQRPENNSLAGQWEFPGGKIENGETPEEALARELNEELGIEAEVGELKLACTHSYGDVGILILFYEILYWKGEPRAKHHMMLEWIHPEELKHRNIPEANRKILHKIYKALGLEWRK
Experiment: X-ray crystal structure
Format: binding
Details: deposited complex; not described in text

Q: How did the X-ray crystal structure turn out when `Nc1nc2c(ncn2[C@H]2C[C@H](O)[C@@H](COP(=O)(O)OP(=O)(O)OP(=O)(O)O)O2)c(=O)[nH]1` [dGTP] was run?
A: RNA pyrophosphohydrolase in complex with dGTP
